According to paper PMC12655351, “Synthesis and Anticancer Activity Evaluation of New 5-((5-Nitrofuran-2-yl)allylidene)-2-thioxo-4-thiazolidinones” (Pharmaceuticals, 2025):

Assays:
PC-3 = settings: PC-3, 48 h
SF-539 = settings: for TGI: SF-539, 48 h
CCRF-CEM = settings: 48 h
CNS cancer = CNS cancer subpanel
DU-145 = assay: cells; settings: Homo sapiens, DU-145, 48 h; for CC50: read-out: LC50, DU-145, 48 h
Colon cancer = assay: NCI-60 SRB screen, subpanel; settings: for MG_MID TGI: Colon cancer subpanel; for GI50 / CC50: Homo sapiens; for GI50: read-out: MG_MID GI50; for CC50: read-out: MG_MID LC50
MALME-3M = assay: NCI-60 SRB screen; settings: 48 h; for GI50 / CC50: Homo sapiens, Malme-3M; for CC50: read-out: LC50, MALME-3M, 48 h; for TGI: MALME-3M
UO-31 = assay: cells; settings: Homo sapiens, UO-31, 48 h; for CC50: read-out: LC50, UO-31, 48 h
NCI-H266 = assay: NCI-60 SRB screen; settings: for GI50 / CC50: Homo sapiens, 48 h; for GI50 / TGI: NCI-H266, 48 h; for CC50: read-out: LC50, NCI-H266, 48 h
HOP-92 = assay: NCI-60 SRB screen; settings: HOP-92, 48 h; for GI50 / CC50: Homo sapiens; for CC50: read-out: LC50, HOP-92, 48 h
SF-295 = assay: NCI-60 SRB screen; settings: SF-295, 48 h; for GI50 / CC50: Homo sapiens; for CC50: read-out: LC50, SF-295, 48 h
BT-549 = assay: cells; settings: Homo sapiens, BT-549, 48 h; for CC50: read-out: LC50, BT-549, 48 h
A498 = assay: cells; settings: Homo sapiens, A498, 48 h
IGROV1 = assay: NCI-60 SRB screen; settings: for GI50 / CC50: Homo sapiens, IGROV-1, 48 h; for GI50 / TGI: IGROV1, 48 h; for CC50: read-out: LC50, IGROV1, 48 h
UACC-62 = assay: NCI-60 SRB screen; settings: UACC-62, 48 h; for GI50 / CC50: Homo sapiens; for CC50: read-out: LC50, UACC-62, 48 h
K-562 = assay: cells; settings: Homo sapiens, K562, 48 h; for GI50: K-562, 48 h; for CC50: read-out: LC50
MCF-7 = assay: [3H]-thymidine incorporation assay; type: cell-based; settings: Homo sapiens, MCF7; MCF-7, 24 h of treatment
Method in brief: (§1)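 Cells treated 24 h with compound at 1, 5, 10 μM (MCF-7) or 5, 15, 30 μM (MDA-MB-231), in triplicate, then pulsed with 0.5 μCi [3H]-thymidine for 4 h at 37 °C. TCA-precipitated, lysed cells counted by scintillation; uptake expressed as percent of control.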

MDA-MB-231 = assay: [3H]-thymidine incorporation assay; type: cell-based; settings: Homo sapiens; MDA-MB-231, 24 h of treatment
Method in brief: as §1

SK-MEL-28 = settings: for TGI: SK-MEL-28, 48 h
MOLT-4 = settings: MOLT-4, 48 h
Leukemia [1] = settings: Leukemia subpanel
[2] = tested on: Non-small cell lung cancer; assay: cells; settings: Homo sapiens; for GI50: read-out: MG_MID GI50; for CC50: read-out: MG_MID LC50
Breast cancer = assay: cells; settings: Homo sapiens; for GI50: read-out: MG_MID GI50; for CC50: read-out: MG_MID LC50
TK-10 = settings: TK-10, 48 h
[3] = tested on: Non-small cell lung cancer; settings: Non-small cell lung cancer subpanel
HCT-116 = assay: cells; settings: Homo sapiens, HCT-116, 48 h
Leukemia [4] = assay: cells; settings: Homo sapiens; for GI50: read-out: MG_MID GI50; for CC50: read-out: MG_MID LC50
SR = assay: cells; settings: Homo sapiens, 48 h; for CC50: read-out: LC50

Compound CCCCC(C(=O)O)N1C(=O)/C(=C/C=C/c2ccc([N+](=O)[O-])o2)SC1=S (stereo not drawn) [6b, 2-((Z)-5-((E)-3-(5-nitrofuran-2-yl)allylidene)-4-oxo-2-thioxothiazolidin-3-yl)hexanoic acid] has a TGI (PC-3) of 11.3 µM, a TGI (SF-539) of 4.17 µM and a TGI (CCRF-CEM) of 10.2 µM. The “MG_MID TGI” value (CNS cancer) was 4.58 µM, the GI50 (DU-145) was 3.35 µM and the CC50 (DU-145) was 32.9 µM. The “MG_MID TGI” value (Colon cancer) was 3.57 µM, the GI50 (Colon cancer) was 1.81 µM and the CC50 (Colon cancer) was 6.66 µM. The GI50 (MALME-3M) was 2.21 µM, the CC50 (MALME-3M) was 9.02 µM and the TGI (MALME-3M) was 4.47 µM. It also gave a GI50 (UO-31) of 1.67 µM, a CC50 (UO-31) of 6.5 µM and a GI50 (NCI-H266) of 2.22 µM. It also gave a CC50 (NCI-H266) of 76.1 µM, a TGI (NCI-H266) of 5.84 µM and a TGI (HOP-92) of 9.85 µM. It also gave a GI50 (HOP-92) of 3.57 µM, a CC50 (HOP-92) of 42.2 µM and a GI50 (SF-295) of 2.23 µM. The CC50 (SF-295) was 13.5 µM, the TGI (SF-295) was 4.99 µM and the GI50 (BT-549) was 1.49 µM. It also gave a CC50 (BT-549) of 6.55 µM, a GI50 (A498) of 3.03 µM and a GI50 (IGROV1) of 2.16 µM. The CC50 (IGROV1) was 18 µM, the TGI (IGROV1) was 4.86 µM and the GI50 (UACC-62) was 1.38 µM. The CC50 (UACC-62) was 5.61 µM, the TGI (UACC-62) was 2.78 µM and the GI50 (K-562) was 2.6 µM. The CC50 (K-562) was greater than 100 µM, the IC50 (MCF-7) was 5.81 µM and the IC50 (MDA-MB-231) was 2.01 µM. The TGI (SK-MEL-28) was 3.73 µM, the TGI (MOLT-4) was 13.5 µM and the “MG_MID TGI” value (Leukemia [1]) was 9.84 µM. It also gave a GI50 [2] of 2.43 µM, a CC50 [2] of 38.7 µM and a GI50 (Breast cancer) of 2.03 µM. The CC50 (Breast cancer) was 26.7 µM, the TGI (TK-10) was 8.15 µM and the “MG_MID TGI” value [3] was 6.45 µM. The GI50 (HCT-116) was 1.73 µM, the GI50 (Leukemia [4]) was 2.57 µM and the CC50 (Leukemia [4]) was 98.4 µM. For the same compound, the GI50 (SR) was 1.98 µM and the CC50 (SR) was greater than 100 µM.
In the case of CC(C)C(C(=O)O)N1C(=O)/C(=C/C=C/c2ccc([N+](=O)[O-])o2)SC1=S (stereo not drawn) [5b, 3-Methyl-2-((Z)-5-((E)-3-(5-nitrofuran-2-yl)allylidene)-4-oxo-2-thioxothiazolidin-3-yl)butanoic acid], the TGI (PC-3) is reported as 6.52 µM, the “growth GP” value (SF-539; SF-539, 10 μM, 48 h) is reported as -98.47% and the TGI (SF-539) is reported as 2.91 µM. For the same compound, the TGI (CCRF-CEM) was 1.81 µM, the “MG_MID TGI” value (CNS cancer) was 2.79 µM and the GI50 (DU-145) was 1.43 µM. For the same compound, the CC50 (DU-145) was 5.56 µM, the “MG_MID TGI” value (Colon cancer) was 2.48 µM and the GI50 (Colon cancer) was 1.03 µM. It also gave a CC50 (Colon cancer) of 7.06 µM, a GI50 (MALME-3M) of 1.32 µM and a CC50 (MALME-3M) of 5.64 µM. For the same compound, the TGI (MALME-3M) was 2.73 µM, the GI50 (UO-31) was 1.33 µM and the CC50 (UO-31) was 7.27 µM. For the same compound, the GI50 (NCI-H266) was 2.4 µM, the CC50 (NCI-H266) was 88.8 µM and the TGI (NCI-H266) was 7.65 µM. The TGI (HOP-92) was 4.17 µM, the GI50 (HOP-92) was 2.13 µM and the CC50 (HOP-92) was 8.15 µM. For the same compound, the GI50 (SF-295) was 1.83 µM, the CC50 (SF-295) was 6.69 µM and the TGI (SF-295) was 3.49 µM. For the same compound, the GI50 (BT-549) was 0.75 µM, the CC50 (BT-549) was 5.13 µM and the GI50 (A498) was 2.69 µM. For the same compound, the GI50 (IGROV1) was 1.78 µM, the CC50 (IGROV1) was 6.57 µM and the TGI (IGROV1) was 3.42 µM. It also gave a GI50 (UACC-62) of 0.78 µM, a CC50 (UACC-62) of 4.9 µM and a TGI (UACC-62) of 2.16 µM. It also gave a GI50 (K-562) of 0.45 µM, a CC50 (K-562) greater than 100 µM and an IC50 (MCF-7) of 1.93 µM. The IC50 (MDA-MB-231) was 6.01 µM, the “growth GP” value (SK-MEL-28; SK-MEL-28, 10 μM, 48 h) was -95.39% and the TGI (SK-MEL-28) was 2.83 µM. The TGI (MOLT-4) was 10.7 µM, the “MG_MID TGI” value (Leukemia [1]) was 3.77 µM and the GI50 [2] was 1.8 µM. It also gave a CC50 [2] of 20.1 µM, a GI50 (Breast cancer) of 1.22 µM and a CC50 (Breast cancer) of 24.6 µM. For the same compound, the TGI (TK-10) was 4.03 µM, the “MG_MID TGI” value [3] was 4.25 µM and the GI50 (HCT-116) was 0.32 µM. It also gave a GI50 (Leukemia [4]) of 0.84 µM, a CC50 (Leukemia [4]) greater than 100 µM and a GI50 (SR) of 0.32 µM. For the same compound, the CC50 (SR) was greater than 100 µM.
